Ki data for two molecules are collected here from ChEMBL document CHEMBL1144764, “A molecular modeling study of the interaction of 2'-fluoro-substituted analogues of dUMP/FdUMP with thymidylate synthase” (Bioorg Med Chem Lett, 2008).

The target of the test is Thymidylate synthase (Homo sapiens, UniProt P04818).

The Ki is the dissociation constant of the complex between target and ligand, obtained from inhibition or displacement. A high value points to weaker binding.

Chain of Thymidylate synthase (P04818 whole entry): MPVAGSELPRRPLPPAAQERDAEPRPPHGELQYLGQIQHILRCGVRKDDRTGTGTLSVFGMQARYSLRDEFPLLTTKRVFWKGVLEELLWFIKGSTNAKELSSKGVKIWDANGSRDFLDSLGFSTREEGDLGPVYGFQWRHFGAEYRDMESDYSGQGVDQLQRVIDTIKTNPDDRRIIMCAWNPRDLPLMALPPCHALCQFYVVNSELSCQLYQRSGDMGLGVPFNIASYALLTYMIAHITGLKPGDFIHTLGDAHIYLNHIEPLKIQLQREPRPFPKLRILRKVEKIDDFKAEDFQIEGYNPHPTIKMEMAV
Description: Binding affinity to human recombinant thymidylate synthase

Take `O=c1ccn([C@@H]2O[C@H](COP(=O)(O)O)[C@@H](O)C2(F)F)c(=O)[nH]1`: affinity was put at a Ki of 433 µM. The result for `O=c1ccn([C@@H]2O[C@H](COP(=O)(O)O)[C@@H](O)[C@@H]2F)c(=O)[nH]1` reads 10.3 µM.
